For experiment [1], the target named is T1, VLA-4 (a4b1 integrin) (Homo sapiens, UniProt P05556+P13612).
T1 construct: followed by 10 µl of Ramos cell-derived VLA-4; endogenous in cells; host or cells: Ramos cells (VLA-4 preparation derived from the cells)
Description: Ramos (VLA-4) / VCAM-1 Cell-Based Screening Assay (cell adhesion). From the text: Ramos (VLA-4) / VCAM-1 Cell-Based Screening Assay Protocol
Calcein-AM was purchased from Molecular Probes Inc.
VLA-4 (a4b1 integrin) antagonist activity, defined as ability to compete with cell-surface VLA-4 for binding to immobilized VCAM-1, was quantitated using a Ramos-VCAM-1 cell adhesion assay. Ramos cells bearing cell-surface VLA-4, were labeled with a fluorescent dye (Calcein-AM) and allowed to bind VCAM-1 in the presence or absence of test compounds.
Initially, this entailed coating 96 well plates (Nunc Maxisorp) with recombinant human VCAM-1 (100 ng in 100 µl PBS), sealing each plate and allowing the plates to stand at 4°C for Å18 hr. The VCAM-coated plates were subsequently washed twice with 0.05% Tween-20 in PBS, and then blocked for 1hr (room temperature) with 200 µl of Blocking Buffer (1% BSA/0.02% thimerosal) to reduce non-specific binding. Following the incubation with Blocking Buffer, plates were inverted, blotted and the remaining buffer aspirated. Each plate was then washed with 300 µl PBS, inverted and the remaining PBS aspirated.
Test compounds were dissolved in 100% DMSO and then diluted 1:25 in VCAM Cell Adhesion Assay Buffer (4 mM CaCl2, 4 mM MgCl2 in 50 mM TRIS-HCl, pH 7.5) (final DMSO = 4%). […] 100 µl/well of each dilution was added to the VCAM-coated plates, followed by 100 µl of Ramos cells (200,000 cells/well in 1% BSA/PBS). […] Plates were inverted to remove non-adherent cells, blotted and 300 µl/well PBS added. Plates were again inverted, blotted and the remaining buffer gently aspirated. 100 µl Lysis Buffer (0.1% SDS in 50 mM TRIS-HCl, pH 8.5) was added to each well and agitated for 2 min on a rotary shaking platform.

For experiment [2], the target named is T1, VLA-4 (a4b1 integrin). Description: VLA-4 / VCAM-1 Screening Assay (solid-phase, dual antibody ELISA). To be noted: Ramos cell-derived VLA-4 binding to immobilized recombinant human VCAM-1, 1 mM MnCl2, 2 hr at 37 °C. Here is the method: VLA-4 / VCAM-1 Screening Assay
VLA-4 antagonist activity, defined as ability to compete for binding to immobilized VCAM-1, was quantitated using a solid-phase, dual antibody ELISA. VLA-4 (a4b1 integrin) bound to VCAM-1 is detected by a complex of anti-integrin b1 antibody: HRP-conjugated anti-mouse IgG: chromogenic substrate (K-Blue). Initially, this entailed coating 96 well plates (Nunc Maxisorp) with recombinant human VCAM-1 (0.4 µg in 100 µl PBS), sealing each plate and then allowing the plates to stand at 4°C for Å18 hr. […] On the day of assay, all plates are washed twice with VCAM Assay Buffer (200 µl/well of 50 mM Tris-HCl, 100 mM NaCl, 1 mM MnCl2, 0.05% Tween 20; pH 7.4). Test compounds are dissolved in 100% DMSO and then diluted 1:20 in VCAM Assay Buffer supplemented with 1mg/mL BSA (i.e., final DMSO = 5%). […] 100 µl per well of each dilution is added to the VCAM-coated plates, followed by 10 µl of Ramos cell-derived VLA-4. These plates are sequentially mixed on a platform shaker for 1 min, incubated for 2 hr at 37 °C, and then washed four times with 200 µl/well VCAM Assay Buffer. 100 µl of mouse anti-human integrin b1 antibody is added to each well (0.6 µg/mL in VCAM Assay Buffer + 1mg/mL BSA) and allowed to incubate for 1 hr at 37°C. At the conclusion of this incubation period, all plates are washed four times with VCAM Assay Buffer (200 µl/well). A corresponding second antibody, HRP-conjugated goat anti-mouse IgG (100 µl per well @ 1:800 dilution in VCAM Assay Buffer + 1mg/mL BSA), is then added to each well, followed by a 1 hr incubation at room temperature and concluded by three washes (200µl/well) with VCAM Assay Buffer. Color development is initiated by addition of 100 µl K-Blue per well (15 min incubation, room temp) and terminated by addition of 100 µl Red Stop Buffer per well. […] Results are calculated as % inhibition of total binding (i.e., VLA-4 + VCAM-1 in the absence of test compound).
(In general: An ELISA detects its analyte on a solid surface through an enzyme-linked reagent.)

The mark [3] stands for this setting: Calcein-AM labeled Ramos cells adhering to immobilized recombinant human VCAM-1, 45 min at room temperature, read-out: Ramos IC50.

“And” between values parts separate entries of the source, which are not always exact repeats. Equal entries are not always repeated.

T1 sequence (P13612 34-1032): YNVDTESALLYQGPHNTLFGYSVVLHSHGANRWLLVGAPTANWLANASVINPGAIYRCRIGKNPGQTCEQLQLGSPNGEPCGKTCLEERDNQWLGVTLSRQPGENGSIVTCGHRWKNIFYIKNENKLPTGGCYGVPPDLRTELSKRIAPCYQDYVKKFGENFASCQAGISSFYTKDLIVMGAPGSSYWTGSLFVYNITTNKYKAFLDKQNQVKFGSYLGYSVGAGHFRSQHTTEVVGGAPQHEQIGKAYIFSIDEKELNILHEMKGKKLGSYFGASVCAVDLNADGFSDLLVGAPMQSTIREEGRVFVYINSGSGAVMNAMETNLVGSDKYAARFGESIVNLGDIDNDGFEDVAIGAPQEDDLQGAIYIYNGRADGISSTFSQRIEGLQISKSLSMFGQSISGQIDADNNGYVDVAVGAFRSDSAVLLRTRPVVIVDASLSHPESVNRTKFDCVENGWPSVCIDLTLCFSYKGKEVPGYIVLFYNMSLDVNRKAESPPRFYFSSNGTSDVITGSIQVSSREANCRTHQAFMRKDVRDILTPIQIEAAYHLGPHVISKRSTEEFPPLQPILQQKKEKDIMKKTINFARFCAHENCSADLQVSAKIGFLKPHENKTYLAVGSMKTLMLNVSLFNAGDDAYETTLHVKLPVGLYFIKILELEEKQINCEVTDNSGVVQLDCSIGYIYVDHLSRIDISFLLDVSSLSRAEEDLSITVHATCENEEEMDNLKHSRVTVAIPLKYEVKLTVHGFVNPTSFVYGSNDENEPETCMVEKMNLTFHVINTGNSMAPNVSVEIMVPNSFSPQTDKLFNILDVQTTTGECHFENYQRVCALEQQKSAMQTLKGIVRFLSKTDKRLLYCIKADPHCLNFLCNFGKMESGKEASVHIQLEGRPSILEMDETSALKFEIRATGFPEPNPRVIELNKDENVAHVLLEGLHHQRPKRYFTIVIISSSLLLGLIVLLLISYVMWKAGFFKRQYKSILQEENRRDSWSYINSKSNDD
T1 sequence (P05556 21-798): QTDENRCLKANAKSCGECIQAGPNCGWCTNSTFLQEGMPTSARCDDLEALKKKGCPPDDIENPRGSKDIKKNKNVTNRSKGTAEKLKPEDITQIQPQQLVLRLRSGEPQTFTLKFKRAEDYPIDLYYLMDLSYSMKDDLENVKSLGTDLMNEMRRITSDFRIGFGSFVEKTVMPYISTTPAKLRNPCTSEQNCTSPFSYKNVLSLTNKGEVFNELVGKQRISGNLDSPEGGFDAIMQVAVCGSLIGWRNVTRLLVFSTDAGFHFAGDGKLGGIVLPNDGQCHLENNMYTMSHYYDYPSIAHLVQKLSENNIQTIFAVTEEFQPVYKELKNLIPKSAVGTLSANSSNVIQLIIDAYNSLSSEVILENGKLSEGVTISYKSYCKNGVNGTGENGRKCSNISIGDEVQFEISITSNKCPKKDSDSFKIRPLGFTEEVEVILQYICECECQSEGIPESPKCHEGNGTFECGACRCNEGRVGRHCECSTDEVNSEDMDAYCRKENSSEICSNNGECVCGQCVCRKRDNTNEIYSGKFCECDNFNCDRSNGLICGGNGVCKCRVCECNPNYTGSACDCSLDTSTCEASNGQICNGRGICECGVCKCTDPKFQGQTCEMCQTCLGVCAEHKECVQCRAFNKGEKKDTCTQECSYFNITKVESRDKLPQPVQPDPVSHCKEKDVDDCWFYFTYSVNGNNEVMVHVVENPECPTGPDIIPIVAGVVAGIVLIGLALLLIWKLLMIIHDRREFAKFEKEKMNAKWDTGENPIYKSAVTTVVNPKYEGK

As for `O=C(N[C@@H](Cc1ccc(NC(=O)c2c(Cl)cccc2Cl)cc1)C(=O)O)c1cccc(Cl)c1Cl` [Example 20], the figures for the half-inhibitory concentration (IC50) in experiment [1] (setting [3]) and in experiment [2] (read-out: ELISA IC50) were 1630 nM and 2.2 nM, respectively. The corresponding values for `O=C(N[C@@H](Cc1ccc(NC(=O)c2c(Cl)cccc2Cl)cc1)C(=O)O)c1ccc(Br)cc1Cl` [Example 22] are 1320 nM and 1.6 nM.

As to `Cc1cc(C(F)(F)F)c(C(=O)Nc2ccc(C[C@H](NC(=O)c3c(C)cccc3Cl)C(=O)O)cc2)c(C)n1` [Example 150], in experiment [1], the IC50 was 47 nM. Regarding `CC(=O)N1[C@H](CC(C)C)C(=O)N(c2ccc(C[C@H](NC(=O)c3c(C)cccc3Cl)C(=O)O)cc2)[C@@H]1C(C)(C)C` [Example 102], the half-maximal inhibitory concentration (IC50) in experiment [2] (read-out: ELISA IC50) was 41 nM. Consider `Cc1cccc(C(=O)N[C@@H](Cc2ccc(NC(=O)c3c(Cl)cccc3Cl)cc2)C(=O)O)c1Cl` [Example 21], for which the half-maximal inhibitory concentration (IC50) in experiment [1] (setting [3]) is 1270 nM; in experiment [2] (read-out: ELISA IC50), 1.4 nM.

As for `CS(=O)(=O)c1ccc(C(=O)N[C@@H](Cc2ccc(NC(=O)c3c(Cl)cccc3Cl)cc2)C(=O)O)c(Cl)c1` [Example 94], the figures for the half-inhibitory concentration (IC50) in experiment [1] (setting [3]) and in experiment [2] (read-out: ELISA IC50) were 9.5 nM and 0.25 nM, respectively. For the compound `Cc1cc(C(F)(F)F)c(C(=O)N[C@@H](Cc2ccc(NC(=O)c3c(Cl)cccc3Cl)cc2)C(=O)O)c(C)n1` [Example 156], in experiment [1] (setting [3]), the IC50 was 114 nM. As for `Cc1cccc(Cl)c1C(=O)Nc1ccc(C[C@H](NC(=O)c2c(Cl)cccc2Cl)C(=O)O)cc1` [Example 169, N-[(2,6-Dichlorophenyl)carbonyl]-4-[[(2-chloro-6-methylphenyl)carbonyl]amino]-L-phenylalanine], in experiment [1] (setting [3]), the IC50 was 30 nM. As for `Cc1cccc(Cl)c1C(=O)N[C@@H](Cc1ccc(NC(=O)c2c(F)cccc2F)cc1)C(=O)O` [Example 114, N-[1-(2-Chloro-6-methylphenyl)carbonyl]-4-[[(2,6-difluorophenyl)carbonyl]amino]-L-phenylalanine], the IC50 in experiment [2] (read-out: ELISA IC50) was found to be 1.14 nM. The same measure, in the same setting: under `C[S+]([O-])c1ccccc1C(=O)N[C@@H](Cc1ccc(NC(=O)c2c(Cl)cccc2Cl)cc1)C(=O)O` (single isomer, unassigned) [Example 30, 4-[[(2,6-dichlorophenyl)carbonyl]amino]-N-[[2-(methylsulfinyl)phenyl]carbonyl]-L-phenylalanine] stands 2 nM and 1.6 nM. With `Cc1cccc(Cl)c1C(=O)N[C@@H](Cc1ccc(NC(=O)c2c(C)ccnc2C)cc1)C(=O)O` [Example 107], the values for the 50% inhibitory concentration (IC50) in experiment [1] and in experiment [2] (ELISA IC50 nM) were 20 nM and 0.79 nM, respectively.

For the compound `COc1ccccc1C(=O)N[C@@H](Cc1ccc(NC(=O)c2c(Cl)cccc2Cl)cc1)C(=O)O` [Example 26], the IC50 in experiment [2] (read-out: ELISA IC50) turned out to be 8.6 nM. Regarding `CC(=O)N1C(Cc2ccccc2)C(=O)N(c2ccc(C[C@H](NC(=O)c3c(C)cccc3Cl)C(=O)O)cc2)C1c1ccccc1` (single isomer, unassigned) [Example 170], the IC50 in experiment [1] (setting [3]) is 33.5 nM. As to `COc1ccc(Br)c(C(=O)N[C@@H](Cc2ccc(NC(=O)c3c(Cl)cccc3Cl)cc2)C(=O)O)c1` [Example 24], the 50% inhibitory concentration (IC50) in experiment [2] (read-out: ELISA IC50) was found to be 0.25 nM.

Turning to `Cc1cccc(Cl)c1C(=O)N[C@@H](Cc1ccc(NC(=O)c2c(F)c(F)c(F)c(F)c2F)cc1)C(=O)O` [Example 115, N-[1-(2-Chloro-6-methylphenyl)carbonyl]-4-[[(2,3,4,5,6-pentafluorophenyl)carbonyl]amino]-L-phenylalanine], the 50% inhibitory concentration (IC50) in experiment [1] (setting [3]) is 678 nM; in experiment [2] (read-out: ELISA IC50) it was 4.5 nM. As for `O=C(Nc1ccc(C[C@H](NC(=O)c2cccc3ccccc23)C(=O)O)cc1)c1c(Cl)cccc1Cl` [Example 15], the half-inhibitory concentration (IC50) in experiment [1] (setting [3]) was 2600 nM. `Cc1cccc(C(C)C)c1C(=O)N[C@@H](Cc1ccc(NC(=O)c2c(Cl)cccc2Cl)cc1)C(=O)O` [Example 90]: the IC50 in experiment [1] (setting [3]) was 23 nM; in experiment [2] (read-out: ELISA IC50), 1.2 nM. Regarding `COC(=O)[C@H](Cc1ccc(N2C(=O)[C@@H](C(C)C)N(C)C2=O)cc1)NC(=O)c1c(C)cccc1Cl` [Example 96, N-(2-Chloro-6-methylbenzoyl)-[(R)-2,5-dioxo-3-methyl-4-(1-methylethyl)-1-imidazolininyl]-L-phenylalanine methyl ester], the half-inhibitory concentration (IC50) in experiment [2] (read-out: ELISA IC50) turned out to be 0.47 nM. Same read-out and setting: under `CC(C)c1cccc(C(C)C)c1C(=O)N[C@@H](Cc1ccc(NC(=O)c2c(Cl)cccc2Cl)cc1)C(=O)O` [Example 18] stands 11 nM; under `CS(=O)(=O)c1ccccc1C(=O)N[C@@H](Cc1ccc(NC(=O)c2c(Cl)cccc2Cl)cc1)C(=O)O` [Example 28], 3.3 nM. For `Cc1cccc(Cl)c1C(=O)N[C@@H](Cc1ccc(NC(=O)c2c(Cl)cccc2Cl)cc1)C(=O)O` [Example 13], the half-inhibitory concentration (IC50) in experiment [1] (setting [3]) is 15 nM; in experiment [2] (read-out: ELISA IC50) it was 0.33 nM. As for `COc1ccc(C(=O)N[C@@H](Cc2ccc(NC(=O)c3c(Cl)cccc3Cl)cc2)C(=O)O)c(Cl)c1` [Example 19], the 50% inhibitory concentration (IC50) in experiment [1] (setting [3]) was 351 nM.

As to `Cc1cccc(Cl)c1C(=O)N[C@@H](Cc1ccc(N2C(=O)c3ccc(C#N)cc3C2=O)cc1)C(=O)O` [Example 125], the IC50 in experiment [2] (read-out: ELISA IC50 nM) turned out to be 1.7 nM. As to `Nc1ccc(C(=O)N[C@@H](Cc2ccc(NC(=O)c3c(Cl)cccc3Cl)cc2)C(=O)O)c(Cl)c1` [Example 124, N-[(4-amino-2-chlorophenyl)carbonyl]-4-[[(2,6-dichlorophenyl)carbonyl]amino]-L-phenylalanine], the IC50 in experiment [1] (setting [3]) is 985 nM; in experiment [2] (read-out: ELISA IC50), 0.63 nM. `O=C(Nc1ccc(C[C@H](NC(=O)c2c(F)cccc2C(F)(F)F)C(=O)O)cc1)c1c(Cl)cccc1Cl` [Example 16]: the half-maximal inhibitory concentration (IC50) in experiment [1] (setting [3]) was 85 nM. For the compound `O=C(N[C@@H](Cc1ccc(NC(=O)c2c(Cl)cccc2Cl)cc1)C(=O)O)c1ccc(O)cc1Cl` [Example 95], the 50% inhibitory concentration (IC50) in experiment [1] (setting [3]) is 33 nM; in experiment [2] (read-out: ELISA IC50) it was 0.46 nM.

In the case of `CNc1ccccc1C(=O)N[C@@H](Cc1ccc(NC(=O)c2c(Cl)cccc2Cl)cc1)C(=O)O` [Example 27], the IC50 in experiment [2] (read-out: ELISA IC50) stood at 1.9 nM. “4-[(2S,4R)-3-Acetyl-2-phenyl-4-(3-pyridinylmethyl)-5-oxo-1-imidazolinyl]-N-[(2-chloro-6-methylphenyl)carbonyl]-L-phenylalanine and 4-[(2R,4R)-3-acetyl-2-phenyl-4-(3-pyridinylmethyl)-5-oxo-1-imidazolinyl]-N-[(2-chloro-6-methylphenyl)carbonyl]-L-phenylalanine [Example 171]”: the IC50 in experiment [1] (setting [3]) is 13.5 nM.

The term IC50 denotes the concentration that gives 50% inhibition.

Values taken from patent EP1005445B1, “N-ALKANOYLPHENYLALANINE DERIVATIVES” (F. HOFFMANN-LA ROCHE AG, priority 1997, dated 1999).
